Legend:
[1] = system: alpha-1 type 1 collagen (COL1A1) protein in LX2 cells; test: Simple Western of COL1A1 protein in TGF-β1-stimulated LX2 hepatic stellate cells; format: cell-based, human; conditions: for upregulation of COL1A1 in TGF-β1-treated LX2 cells: 10 μM, 30 min pretreatment, then 5 ng/ml TGF-β1 for 24 h; for protein abundance of COL1A1: sole treatment 10 μM for 24 h, LX2 cells, no TGF-β1
Protocol: (§1) The human hepatic stellate cell line LX2 was purchased from Merck. The cells were used up to passage ten and incubated under sterile conditions at 37° C. and 5% CO2. The cells were cultivated in medium containing Dulbecco's Modified Eagle's Medium with 4.5 g/l glucose (ThermoFisher), 4 mmol/l glutamine (ThermoFisher), 2% fetal bovine serum (FBS) (Merck), 100 U/ml penicillin and 100 μg/ml streptomycin (Merck). After 2 days, LX2 cells were starved for FBS for 24 h and then pretreated with 10 μM HK1 (Taros Chemicals GmbH & Co. KG) or 10 μM HK3 (Taros Chemicals GmbH & Co. KG) for 30 min. Subsequently, 5 ng/ml recombinant TGF-β1 (R&D Systems, Minneapolis, MN, USA) was added to the hepatic stellate cell cultures for 24 h. LX2 cells were also incubated with 5 ng/ml TGF-β1 alone as positive control for the hepatic stellate cell activation. Recombinant TGF-β1 was dissolved in sterile 4 mmol/l HCl (Merck) containing 0.1% bovine serum albumin (Roth Karlsruhe, Germany) as carrier protein. HK1 and HK3 were dissolved in sterile dimethyl sulfoxide (DMSO) (Sigma-Aldrich, Munich, Germany). Stimulations with 10 μM HK1, 10 μM HK3 and the corresponding vehicles (HCl and DMSO with or without HCl) alone for 24 h were also included as treatments.
(§2) For the measurement of the pro-fibrotic proteins, Western Blotting was performed. Proteins were extracted from whole cell lysate of LX2 cells using RIPA lysis buffer containing 50 mmol/l Tris-HCl (pH 8.0), 150 mmol/l NaCl, 1% IGEPAL® CA-630, 0.5% sodium deoxycholate, 0.1% sodium dodecyl sulfate, 10% PhosSTOP Phosphatase Inhibitor Cocktail (Roche, Basel, Switzerland) and 10% cOmplete Mini Protease Inhibitor Cocktail (Roche). Lysates were centrifuged at 14850×g for 15 min at 4° C. Then, the total protein content of the lysates was determined using a bicinchoninic acid protein assay (ThermoFisher Scientific) in accordance with the manufacturer's instructions. The quantification of protein abundance was performed by Simple Western size-based assays using a 12-230 kDa and 66-440 kDa Separation Module (ProteinSimple, San Jose, CA, USA) according to the manufacturer's instructions. This fully automated Western blotting system is based on a capillary electrophoresis technology. The separation, immobilization to the capillary wall via a proprietary, photoactivated capture chemistry and immunodetection of the proteins using a horseradish peroxidase (HRP)-conjugated secondary antibody and chemiluminescent substrate take place directly in the capillary without gel separation and transfer steps to blotting paper. The chemiluminescence is measured at multiple exposure times and automatically quantified by the Compass for Simple Western software (version 4.1.0) (ProteinSimple). The chemiluminescent signal for immunodetected proteins, which can be represented as an electropherogram or virtual blot-like image, is automatically quantified by calculation of the area under the curve of the peak.
(§3) The software reports the molecular weight, the area (in an arbitrary unit and in percent) and signal to noise ratio for each protein detected. The primary antibodies for the recognition of endogenous levels of total alpha-1 type 1 collagen (COL1A1) protein (#72026) and total fibronectin 1 (FN1) protein (#26836) were purchased from Cell Signaling Technology (Danvers, MA, USA). The anti-rabbit HRP-linked secondary antibody was from ProteinSimple. […]
(§4) Differences were analysed by one-way ANOVA followed by the Tukey method as correction for multiple testing.

[2] = system: caspase 3/7 activity in primary human hepatocytes; test: Caspase 3/7 activity provoked by palmitate in primary human hepatocytes; format: cell-based; conditions: Hepatocyte, 10 μM pre-treatment + palmitate 200 μM, read-out: caspase 3/7 activity, % of control
Protocol: The potential protective effect of HK1 and HK3 on caspase 3/7 activity in HepG2 cells and primary human hepatocytes was analysed.
HepG2 cells were obtained from Merck (Darmstadt, Germany) (ECACC-certified), while primary human hepatocytes were obtained from Thermo Fisher Scientific (Waltham, MA, USA), and all were cultured according to the instructions of the respective manufacturers. During experiments, cells were cultured in serum-free medium. Unless otherwise stated, cells were treated with 200 μM bovine serum albumin (BSA)-conjugated palmitate (Cayman Chemicals, Ann Arbor, MI) alone or in combination with 10 μM HK1 (Taros Chemicals GmbH & Co. KG, Dortmund, Germany) and HK3 (Taros Chemicals GmbH & Co. KG, Dortmund, Germany) 30 min prior to palmitate exposure for 24 hours. The vehicle BSA was used according to the palmitate concentration and DMSO according to HK1 and HK3 concentration. 2 μM Staurosporine (Abcam, Cambridge, GB) was used as a positive and 100 μM Caspase 3/7 inhibitor (CI) (Cayman Chemicals) as a negative control.
Differences were analysed by one-way ANOVA.

[3] = system: interleukin-6 (IL-6) secretion by LX2 cells; test: Olink Inflammation immunoassay of LX2 supernatants: IL-6; format: cell-based, human; conditions: for amount of secreted IL-6 after combined treatment with TGF-β1: 10 μM + 5 ng/ml TGF-β1, LX2 cells
Protocol: as §1
LX2 cells were cultured and treated as described in Example 1. After the incubation time, the supernatants of LX2 cells were collected, centrifuged for 10 min at 2000×g at 4° C. and transferred to new tubes to measure 92 proteins in the cell culture supernatants simultaneously using the Olink Inflammation multiplex immunoassay (Olink proteomics, Uppsala, Sweden). This panel covers 92 proteins, including pro- and anti-inflammatory cytokines, growth factors, chemokines and factors involved in biological processes such as apoptosis, inflammatory and immune response, cell adhesion, chemotaxis, or fibrosis. This protein quantification method is based on a proximity extension assay technology, which combines a dual-recognition immunoassay using two matched antibodies labelled with DNA oligonucleotides, with a polymerase chain reaction (PCR) amplification and a microfluidic quantitative real-time PCR as readout. The biomarker concentrations are given as normalized protein expression (NPX) values, which were generated from the threshold cycle values from the qPCR, and represent an arbitrary unit on a log 2 scale.
as §4

[4] = system: fibronectin 1 (FN1) protein in LX2 cells; test: Simple Western of FN1 protein in TGF-β1-stimulated LX2 hepatic stellate cells; format: cell-based, human; conditions: for upregulation of FN1 in TGF-β1-treated LX2 cells: 10 μM, 30 min pretreatment, then 5 ng/ml TGF-β1 for 24 h; for protein abundance of FN1: sole treatment 10 μM for 24 h, LX2 cells, no TGF-β1
Protocol: as §1, §2, §3, §4

Structure (SMILES)	upregulation of COL1A1 in TGF-β1-treated LX2 cells [1]	protein abundance of COL1A1 [1]	activity at 10 µM [2]	amount of secreted IL-6 after combined treatment with TGF-β1 [3]	upregulation of FN1 in TGF-β1-treated LX2 cells [4]	protein abundance of FN1 [4]	attenuation of protein content of IL-6 compared to TGF-treated LX2 cells ([3]; 10 μM + 5 ng/ml TGF-β1)
Cc1cc(NC(=S)/C(C#N)=C(\O)C2CC2)ccc1[N+](=O)[O-] [HK3, 2-Cyano-3-cyclopropyl-3-hydroxy-N-(3-methyl-4-nitro-phenyl)-thioacrylamide]	completely suppressed	no impact	41.7%	downregulated	completely suppressed	no impact	–
Cc1cc(NC(=S)/C(C#N)=C(\O)C2CC2)ccc1F [HK1, 2-Cyano-3-cyclopropyl-N-(4-fluoro-3-methyl-phenyl)-3-hydroxy-thioacrylamide]	completely suppressed	no impact	85.6%	downregulated	completely suppressed	no impact	59%
